Test results published in PMC3066543, “Procyanidins are potent inhibitors of LOX-1: a new player in the French Paradox” (Proceedings of the Japan Academy. Series B, Physical and …, 2011).

Legend:
[1] = target: T1, human LOX-1 (Homo sapiens, UniProt P78380); test: DiI-oxLDL binding to LOX-1-CHO cells (4 ℃, 45 min); assay type: cell-based
T1 construct: expressed in transfected cells; host or cells: CHO-K1 (LOX-1-CHO), doxycycline-induced
Method: Tetracycline-inducible human LOX-1 (tagged with V5-6×His at C-terminus) expressing CHO-K1 (LOX-1-CHO) cells were maintained as previously described.[8]) The cells were seeded in 96-well plate at 10^4 cells/well in the presence of doxycycline (1 µg/mL) (Calbiochem, La Jolla, CA, USA) and were incubated in Ham’s F-12 medium containing 10% FBS at 37 ℃ for 24 h. After being washed with the medium without FBS, the cells were treated with foodstuff extracts or an anti-LOX-1 antibody at the final concentration of 10 µg/mL for 1 h. […] After washing, the cells were fixed with 10% formalin, and were stained with 4′,6-diamidino-2-phenylindole (DAPI) (Sigma, St. Louis, MO, USA). The binding of DiI-oxLDL to LOX-1-CHO cells were determined similarly to the uptake assay, except that the incubation of DiI-oxLDL was performed at 4 ℃ for 45 min. The samples were subjected to fluorescence microscopic analysis (Axiovert 200M, Zeiss, Oberkochen, Germany) or quantitative fluorescence analysis using the IN Cell analyzer system (GE Healthcare, Fairfield, CT, USA). Cell-associated DiI-oxLDL was determined as a ratio of DiI-oxLDL fluorescence intensity per cell in the presence of foodstuff extracts to that in the absence of extracts. All experiments were conducted in more than triplicates. For the determination of fluorescence quenching by procyanidins, the fluorescence was also measured before washing out unbound DiI-oxLDL (Spectramax, Molecular Devices, Sunnyvale, CA, USA). The final concentration of DMSO was less than 0.1% of total volume.

[2] = Plasma concentrations of procyanidin B2 and C1 in rats given OPC; assay type: in vivo; settings: male, stroke-prone spontaneously hypertensive (SHR-SP), rat, po, 0.5 % (w/v) OPC in drinking saline, rats given 0.5% OPC orally in drinking saline for two days, sampled 7:00–8:00
Method: All protocols were approved by the Institutional Animal Care and Use Committee of the National Cerebral and Cardiovascular Center. Animals were individually housed at 23 ± 2 ℃ with 12 h light-dark cycles (7:00–19:00 light-on). Eight-week-old male stroke-prone spontaneously hypertensive rats (SHR-SP) (CLEA Japan, Tokyo, Japan) were divided into two groups (n = 8 each) with similar blood pressure, heart rates and body weights (tail cuff and pulse transducer system, BP-98A, Softron, Tokyo, Japan). They were given high fat diet without cholic acid or vitamin E (CLEA Japan, Tokyo, Japan) and physiological saline as drinking water for 2 weeks. Half of the rats received physiological saline containing 0.5%(w/v) oligomeric procyanidins (OPC) with various chain lengths purified from apples. At the end of the study, the rats were euthanized with isoflurane inhalation and blood was collected from vena cava between 11:00–14:00. The rats were perfused systemically with physiological saline for Oil Red O staining. Total cholesterol, high-density lipoprotein (HDL) cholesterol, triglyceride, and thiobarbituric acid reactive substance (TBARS) were determined enzymatically using commercially available kits (Wako Pure Chemical Industries, Osaka, Japan; Zeptometrix corporation, Buffalo, NY, USA). […]

Compound: Oc1cc(O)c2c(c1)OC(c1ccc(O)c(O)c1)C(O)C2c1c(O)cc2c(c1O)C(c1c(O)cc(O)c3c1OC(c1ccc(O)c(O)c1)C(O)C3)C(O)C(c1ccc(O)c(O)c1)O2 (stereo not drawn) [epicatechin(4β-6)epicatechin(4β-8)catechin]
- IC50 ([1]; DiI-oxLDL 10 µg/mL): 54.2 nM

Compound: Oc1cc(O)c2c(c1)OC(c1ccc(O)c(O)c1)C(O)C2c1c(O)cc2c(c1O)C(c1c(O)cc(O)c3c1OC(c1ccc(O)c(O)c1)C(O)C3)C(O)C(c1ccc(O)c(O)c1)O2 (stereo not drawn) [epicatechin(4β-6)epicatechin(4β-8)epicatechin]
- IC50 ([1]; DiI-oxLDL 10 µg/mL): 84.2 nM

Compound: Oc1cc(O)c2c(c1)OC(c1ccc(O)c(O)c1)C(O)C2c1c(O)cc(O)c2c1OC(c1ccc(O)c(O)c1)C(O)C2c1c(O)cc(O)c2c1OC(c1ccc(O)c(O)c1)C(O)C2 (stereo not drawn) [epicatechin(4β-8)epicatechin(4β-8)catechin]
- IC50 ([1]; DiI-oxLDL 10 µg/mL): 47.3 nM

Compound: Oc1cc(O)c2c(c1)O[C@H](c1ccc(O)c(O)c1)[C@H](O)[C@H]2c1c(O)cc(O)c2c1O[C@H](c1ccc(O)c(O)c1)[C@H](O)C2 [procyanidin B2, epicatechin(4β-8)epicatechin]
- concentration at 2 days [2]: 7.9 ± 1.8 ng/mL

Compound: Oc1cc(O)c2c(c1)O[C@H](c1ccc(O)c(O)c1)[C@H](O)[C@H]2c1c(O)cc(O)c2c1O[C@H](c1ccc(O)c(O)c1)[C@H](O)[C@H]2c1c(O)cc(O)c2c1O[C@H](c1ccc(O)c(O)c1)[C@H](O)C2 [procyanidin C1, epicatechin(4β-8)epicatechin(4β-8)epicatechin]
- fluorescence of DiI-oxLDL in LOX-1-CHO cells (binding, microscopy) ([1]; 300 ng/mL, DiI-oxLDL 10 µg/mL, Fig. 4A): significantly attenuated
- IC50 ([1]; DiI-oxLDL 1 µg/mL, data not shown): 8.08 nM
- IC50 ([1]; DiI-oxLDL 3 µg/mL, data not shown): 30 nM
- IC50 ([1]; DiI-oxLDL 10 µg/mL): 58.8 nM
- concentration at 2 days [2]: 4.9 ± 1.9 ng/mL
